Experimental data taken from ChEMBL document CHEMBL3046685, “Otebo bean (Phaseolus vulgaris) sensitivity to pre-emergence herbicides” (Crop Prot, 2006).

Legend:
Phaseolus vulgaris [1] = test: Phytotoxicity in Phaseolus vulgaris (dry bean) assessed as visual injury relative to control; type: organism-based; settings: in vivo
Phaseolus vulgaris [2] = test: Phytotoxicity in Phaseolus vulgaris (otebo bean) assessed as visual injury at 150 g ai/ha applied as spray during pre-emergence treatment for 1 to 2 days measured 14 days post emergence relative to untreated control; type: organism-based; settings: in vivo, other
Phaseolus vulgaris [3] = test: Phytotoxicity in Phaseolus vulgaris (cranberry bean) assessed as visual injury at 0.075 to 0.15 kg/ha applied during pre-emergence relative to control; type: organism-based; settings: in vivo, other
Phaseolus vulgaris [4] = test: Increase in Phaseolus vulgaris (otebo bean) yield at 75 g ai/ha applied as spray during pre-emergence treatment for 1 to 2 days (reference value: 3.8 t/ha); type: functional
Phaseolus vulgaris [5] = test: Phytotoxicity in Phaseolus vulgaris (black bean) assessed as reduction in crop yield treated through soil application relative to control; type: organism-based; settings: in vivo, other
Phaseolus vulgaris [6] = test: Phytotoxicity in Phaseolus vulgaris (otebo bean) assessed as plant height at 75 g ai/ha applied as spray during pre-emergence treatment for 1 to 2 days measured 28 days post emergence (reference value: 29 cm); type: organism-based; settings: in vivo, other
Phaseolus vulgaris [7] = test: Increase in Phaseolus vulgaris (otebo bean) yield at 150 g ai/ha applied as spray during pre-emergence treatment for 1 to 2 days (reference value: 3.8 t/ha); type: functional
Phaseolus vulgaris [8] = test: Phytotoxicity in Phaseolus vulgaris (otebo bean) assessed as visual injury at 75 g ai/ha applied as spray during pre-emergence treatment for 1 to 2 days measured 28 days post emergence relative to untreated control; type: organism-based; settings: in vivo, other
Phaseolus vulgaris [9] = test: Phytotoxicity in Phaseolus vulgaris (cranberry bean) assessed as visual injury at 0.075 to 0.15 kg/ha applied prior to planting relative to control; type: organism-based; settings: in vivo, other
Phaseolus vulgaris [10] = test: Phytotoxicity in Phaseolus vulgaris (otebo bean) assessed as change in moisture content at 75 to 150 g ai/ha applied as spray during preemergence treatment for 1 to 2 days; type: organism-based; settings: in vivo, other
Phaseolus vulgaris [11] = test: Phytotoxicity in Phaseolus vulgaris (otebo bean) assessed as visual injury at 150 g ai/ha applied as spray during pre-emergence treatment for 1 to 2 days measured 7 days post emergence relative to untreated control; type: organism-based; settings: in vivo, other
Phaseolus vulgaris [12] = test: Phytotoxicity in Phaseolus vulgaris (otebo bean) assessed as visual injury at 75 g ai/ha applied as spray during pre-emergence treatment for 1 to 2 days measured 14 days post emergence relative to untreated control; type: organism-based; settings: in vivo, other
Phaseolus vulgaris [13] = test: Phytotoxicity in Phaseolus vulgaris (otebo bean) assessed as shoot dry weight at 150 g ai/ha applied as spray during pre-emergence treatment for 1 to 2 days measured 42 days post emergence (reference value: 164 g); type: organism-based; settings: in vivo, other
Phaseolus vulgaris [14] = test: Phytotoxicity in Phaseolus vulgaris (pinto bean) assessed as visual injury at 75 g ai/ha applied prior to planting relative to control; type: organism-based; settings: in vivo, other
Phaseolus vulgaris [15] = test: Phytotoxicity in Phaseolus vulgaris (black bean) assessed as visual injury treated through soil application relative to control; type: organism-based; settings: in vivo, other
Phaseolus vulgaris [16] = test: Phytotoxicity in Phaseolus vulgaris (otebo bean) assessed as shoot dry weight at 75 g ai/ha applied as spray during pre-emergence treatment for 1 to 2 days measured 42 days post emergence (reference value: 164 g); type: organism-based; settings: in vivo, other
Phaseolus vulgaris [17] = test: Phytotoxicity in Phaseolus vulgaris (otebo bean) assessed as visual injury at 75 g ai/ha applied as spray during pre-emergence treatment for 1 to 2 days measured 7 days post emergence relative to untreated control; type: organism-based; settings: in vivo, other
Phaseolus vulgaris [18] = test: Phytotoxicity in Phaseolus vulgaris (otebo bean) assessed as visual injury at 150 g ai/ha applied as spray during pre-emergence treatment for 1 to 2 days measured 28 days post emergence relative to untreated control; type: organism-based; settings: in vivo, other
Phaseolus vulgaris [19] = test: Phytotoxicity in Phaseolus vulgaris (otebo bean) assessed as plant height at 150 g ai/ha applied as spray during pre-emergence treatment for 1 to 2 days measured 28 days post emergence (reference value: 29 cm); type: organism-based; settings: in vivo, other
Phaseolus vulgaris [20] = test: Phytotoxicity in Phaseolus vulgaris (otebo bean) assessed as shoot dry weight at 3200 g ai/ha applied as spray during pre-emergence treatment for 1 to 2 days measured 42 days post emergence (reference value: 164 g); type: organism-based; settings: in vivo, other
Phaseolus vulgaris [21] = test: Phytotoxicity in Phaseolus vulgaris (otebo bean) assessed as plant height at 1600 g ai/ha applied as spray during pre-emergence treatment for 1 to 2 days measured 28 days post emergence (reference value: 29 cm); type: organism-based; settings: in vivo, other
Phaseolus vulgaris [22] = test: Phytotoxicity in Phaseolus vulgaris (otebo bean) assessed as change in moisture content at 1600 to 3200 g ai/ha applied as spray during preemergence treatment for 1 to 2 days; type: organism-based; settings: in vivo, other
Phaseolus vulgaris [23] = test: Phytotoxicity in Phaseolus vulgaris (otebo bean) assessed as plant height at 3200 g ai/ha applied as spray during pre-emergence treatment for 1 to 2 days measured 28 days post emergence (reference value: 29 cm); type: organism-based; settings: in vivo, other
Phaseolus vulgaris [24] = test: Phytotoxicity in Phaseolus vulgaris (otebo bean) assessed as visual injury at 3200 g ai/ha applied as spray during pre-emergence treatment for 1 to 2 days measured 28 days post emergence relative to untreated control; type: organism-based; settings: in vivo, other
Phaseolus vulgaris [25] = test: Phytotoxicity in Phaseolus vulgaris (otebo bean) assessed as visual injury at 1600 g ai/ha applied as spray during pre-emergence treatment for 1 to 2 days measured 7 days post emergence relative to untreated control; type: organism-based; settings: in vivo, other
Phaseolus vulgaris [26] = test: Increase in Phaseolus vulgaris (otebo bean) yield at 3200 g ai/ha applied as spray during pre-emergence treatment for 1 to 2 days (reference value: 3.8 t/ha); type: functional
Phaseolus vulgaris [27] = test: Phytotoxicity in Phaseolus vulgaris (otebo bean) assessed as visual injury at 1600 g ai/ha applied as spray during pre-emergence treatment for 1 to 2 days measured 28 days post emergence relative to untreated control; type: organism-based; settings: in vivo, other
Phaseolus vulgaris [28] = test: Phytotoxicity in Phaseolus vulgaris (otebo bean) assessed as visual injury at 3200 g ai/ha applied as spray during pre-emergence treatment for 1 to 2 days measured 14 days post emergence relative to untreated control; type: organism-based; settings: in vivo, other
Phaseolus vulgaris [29] = test: Phytotoxicity in Phaseolus vulgaris (otebo bean) assessed as visual injury at 1600 g ai/ha applied as spray during pre-emergence treatment for 1 to 2 days measured 14 days post emergence relative to untreated control; type: organism-based; settings: in vivo, other
Phaseolus vulgaris [30] = test: Increase in Phaseolus vulgaris (otebo bean) yield at 1600 g ai/ha applied as spray during pre-emergence treatment for 1 to 2 days (reference value: 3.8 t/ha); type: functional
Phaseolus vulgaris [31] = test: Phytotoxicity in Phaseolus vulgaris (otebo bean) assessed as visual injury at 3200 g ai/ha applied as spray during pre-emergence treatment for 1 to 2 days measured 7 days post emergence relative to untreated control; type: organism-based; settings: in vivo, other
Phaseolus vulgaris [32] = test: Phytotoxicity in Phaseolus vulgaris (otebo bean) assessed as shoot dry weight at 1600 g ai/ha applied as spray during pre-emergence treatment for 1 to 2 days measured 42 days post emergence (reference value: 164 g); type: organism-based; settings: in vivo, other

## CCc1cnc(C2=NC(C)(C(C)C)C(=O)N2)c(C(=O)O)c1 (configuration not stated) [IMAZETHAPYR]
Phaseolus vulgaris [1]
  Activity: <= 20%
Phaseolus vulgaris [2]
  Activity: 1%
Phaseolus vulgaris [3]
  Activity: < 5%
Phaseolus vulgaris [4]
  Crop_yield: 3.2 tons/ha
Phaseolus vulgaris [5]
  Crop_yield: 49%
Phaseolus vulgaris [6]
  Activity: 26 cm
Phaseolus vulgaris [7]
  Crop_yield: 2.9 tons/ha
Phaseolus vulgaris [8]
  Activity: 6%
Phaseolus vulgaris [9]
  Activity: < 5%
Phaseolus vulgaris [10]
  Activity: Non-toxic
Phaseolus vulgaris [11]
  Activity: 0%
Phaseolus vulgaris [12]
  Activity: 0%
Phaseolus vulgaris [13]
  Activity: 95 g
Phaseolus vulgaris [14]
  Activity: < 6%
Phaseolus vulgaris [15]
  Activity: <= 6%
Phaseolus vulgaris [16]
  Activity: 118 g
Phaseolus vulgaris [17]
  Activity: 0%
Phaseolus vulgaris [18]
  Activity: 16%
Phaseolus vulgaris [19]
  Activity: 22 cm

## CCc1cccc(C)c1N(C(=O)CCl)[C@@H](C)COC [S-METOLACHLOR]
Phaseolus vulgaris [20]
  Activity: 164 g
Phaseolus vulgaris [21]
  Activity: 30 cm
Phaseolus vulgaris [22]
  Activity: Non-toxic
Phaseolus vulgaris [23]
  Activity: 29 cm
Phaseolus vulgaris [24]
  Activity: 0%
Phaseolus vulgaris [25]
  Activity: 2%
Phaseolus vulgaris [26]
  Crop_yield: 4.6 tons/ha
Phaseolus vulgaris [27]
  Activity: 0%
Phaseolus vulgaris [28]
  Activity: 2%
Phaseolus vulgaris [29]
  Activity: 1%
Phaseolus vulgaris [30]
  Crop_yield: 4.1 tons/ha
Phaseolus vulgaris [31]
  Activity: 4%
Phaseolus vulgaris [32]
  Activity: 175 g
